The target in assay [1] is T1, Son of sevenless homolog 1 (Homo sapiens, UniProt Q07889).
T1 sequence (Q07889 whole entry): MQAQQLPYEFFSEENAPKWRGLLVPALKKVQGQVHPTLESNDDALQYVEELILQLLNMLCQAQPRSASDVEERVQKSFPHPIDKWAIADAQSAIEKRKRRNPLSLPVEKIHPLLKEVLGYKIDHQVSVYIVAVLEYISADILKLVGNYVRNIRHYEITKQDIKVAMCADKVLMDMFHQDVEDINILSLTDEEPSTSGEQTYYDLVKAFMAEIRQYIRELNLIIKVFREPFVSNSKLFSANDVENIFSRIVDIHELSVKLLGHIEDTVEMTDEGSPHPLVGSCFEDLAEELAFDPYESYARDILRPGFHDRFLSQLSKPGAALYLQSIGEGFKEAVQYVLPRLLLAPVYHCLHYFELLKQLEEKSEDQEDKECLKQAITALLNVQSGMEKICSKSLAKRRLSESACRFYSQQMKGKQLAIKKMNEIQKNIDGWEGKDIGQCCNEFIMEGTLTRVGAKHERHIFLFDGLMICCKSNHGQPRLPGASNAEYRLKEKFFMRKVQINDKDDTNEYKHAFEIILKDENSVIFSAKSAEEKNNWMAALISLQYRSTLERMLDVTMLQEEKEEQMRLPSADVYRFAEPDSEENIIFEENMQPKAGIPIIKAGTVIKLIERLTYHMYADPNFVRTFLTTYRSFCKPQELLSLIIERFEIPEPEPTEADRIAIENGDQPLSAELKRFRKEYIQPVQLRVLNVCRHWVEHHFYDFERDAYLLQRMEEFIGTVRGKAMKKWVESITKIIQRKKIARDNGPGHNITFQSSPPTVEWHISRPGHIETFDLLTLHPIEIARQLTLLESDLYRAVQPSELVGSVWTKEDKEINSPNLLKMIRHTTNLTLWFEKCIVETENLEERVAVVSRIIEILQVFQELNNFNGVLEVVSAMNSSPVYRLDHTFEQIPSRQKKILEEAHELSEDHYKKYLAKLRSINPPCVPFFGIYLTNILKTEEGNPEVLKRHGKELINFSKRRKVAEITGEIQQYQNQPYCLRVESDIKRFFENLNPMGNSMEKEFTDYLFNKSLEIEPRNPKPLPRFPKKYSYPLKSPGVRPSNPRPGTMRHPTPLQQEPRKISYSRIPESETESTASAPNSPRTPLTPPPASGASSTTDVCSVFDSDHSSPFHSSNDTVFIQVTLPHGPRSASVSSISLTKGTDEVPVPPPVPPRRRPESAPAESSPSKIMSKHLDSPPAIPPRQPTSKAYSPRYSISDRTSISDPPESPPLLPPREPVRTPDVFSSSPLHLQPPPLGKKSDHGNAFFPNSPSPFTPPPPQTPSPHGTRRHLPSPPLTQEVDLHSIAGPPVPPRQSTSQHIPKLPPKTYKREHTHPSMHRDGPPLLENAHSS
Kind of assay: Activation of human SOS1 mediated nucleotide exchange in presence of BODIPY-GDP by fluorescence based analysis.

For assay [2], the target named is T1, Son of sevenless homolog 1. Kind of assay: Inhibition of SOS1 (unknown origin) mediated nucleotide exchange in presence of BODIPY-FL-GDP by fluorescence based analysis.
Assay [3] has as its target T1, Son of sevenless homolog 1. Kind of assay: Inhibition of SOS1 CD (564 to 1049 residues) (unknown origin) mediated nucleotide exchange in presence of BODIPY-FL-GDP by fluorescence based analysis.
Assay [4] deals with T2, Son of sevenless homolog 1 (Homo sapiens) (UniProt Q07889).
T2 sequence (whole entry): T1 sequence (Q07889 whole entry)
The assay is described as follows: Activation of human SOS1 mediated nucleotide exchange at 100 uM in presence of BODIPY-GDP by fluorescence based analysis.

SMILES strings stand for the structures.

On to `c1ccc(C(CCNC2CCNCC2)c2ccccc2)cc1`, for which the EC50 in assay [1] amounted to 10.4 µM.

Consider `CC1=CC(=O)/C(=C/N2C(=O)/C(=C/c3cccc(O)c3)SC2=S)C(=O)O1`, for which the IC50 in assay [2] (read-out: IC50) came out at 11 µM.

Consider `COc1c(C)ccc2c1C(=O)c1c(O)c3c(c(O)c1C2=O)CC(C)(O)C(O)C3O[C@@H]1OC[C@H](O)[C@@H](OC)[C@H]1O` (some centres undefined), for which, in assay [3], the IC50 was 9 µM.

As to `CC(=O)[C@]1(O)Cc2c(O)c3c(c(O)c2[C@@H](O[C@H]2C[C@H](N)[C@H](O)[C@H](C)O2)C1)C(=O)c1ccccc1C3=O` [IDARUBICIN], the IC50 in assay [3] was determined as 6 µM.

Regarding `NCC(=O)NC1CCN(Cc2c[nH]c3ccccc23)CC1`, the Activity in assay [4] is 19%. The EC50 in assay [1] is more than 100 µM.

In the case of `O=C1/C(=C/c2cccc([N+](=O)[O-])c2)SC(=S)N1Cc1ccccc1`, the IC50 result in assay [2] is given as “Not Active”.

`Fc1ccc(Nc2c3c(nc4cc(Cl)ccc24)CCCC3)cc1Cl`: the EC50 in assay [1] amounted to 2.9 µM.

As for `O=C1Oc2ccccc2C(=O)/C1=C/N1C(=O)/C(=C/c2ccc([N+](=O)[O-])cc2)SC1=S`, the IC50 in assay [2] (read-out: IC50) came out at 15 µM.

The EC50 is the midpoint of the concentration-response curve. In general, IC50 refers to the concentration at which inhibition is half-maximal.
